Type in all cases: biochemical
The target in one test is KAT6A Full length enzyme (Homo sapiens (Human), UniProt Q92794). Briefly: KAT6A assay (SAMDI-MS acetylation of H3 1-21 peptide). The note with it: Morrison equation fit; replicate number in parentheses; read-out: KAT6A Ki (nM) (replicate number).
Test [1] addresses KAT7+BRPF1+EAF6+ING5 4 protein complex (Homo sapiens (Human), UniProt O95251). The experiment in a line: KAT7 BRPF1 assay (SAMDI-MS acetylation of H3 1-21 peptide). The note with it: Morrison equation fit; replicate number in parentheses.
In test [2] the target is KAT7+BRPF2+EAF6+ING5 4 protein complex (Homo sapiens (Human), UniProt O95251). The experiment in a line: KAT7 BRPF2 assay (SAMDI-MS acetylation of H3 1-21 peptide). The conditions noted are these: Morrison equation fit; replicate number in parentheses; read-out: KAT7 BRPF2 Ki (nM) (replicate number).
For test [3], the target named is KAT7+JADE1+EAF6+ING5 4 protein complex (Homo sapiens (Human), UniProt O95251). Briefly: KAT7 JADE1 assay (SAMDI-MS acetylation of H3 1-21 peptide). The note with it: Morrison equation fit; replicate number in parentheses; read-out: KAT7 JADE1 Ki (nM) (replicate number).
The next test has as its target KAT8 Full length enzyme (Homo sapiens (Human), UniProt Q9H7Z6). Briefly: KAT8 assay (SAMDI-MS acetylation of H3 1-21 peptide). The note with it: Morrison equation fit; replicate number in parentheses; read-out: KAT8 Ki (nM) (replicate number).
A further test addresses KAT5 Full length enzyme (Homo sapiens (Human), UniProt Q92993). Briefly: KAT5 assay (SAMDI-MS acetylation of H4 1-21 peptide). The note with it: Morrison equation fit; replicate number in parentheses; read-out: KAT5 Ki (nM) (replicate number).

As a reminder, the Ki is a dissociation constant, usually derived from enzyme kinetics or from competition with a known ligand.

SMILES strings stand for the structures.

KAT6A Full length enzyme, sequence (Q92794 other isoform, or with tags, fused parts or gaps): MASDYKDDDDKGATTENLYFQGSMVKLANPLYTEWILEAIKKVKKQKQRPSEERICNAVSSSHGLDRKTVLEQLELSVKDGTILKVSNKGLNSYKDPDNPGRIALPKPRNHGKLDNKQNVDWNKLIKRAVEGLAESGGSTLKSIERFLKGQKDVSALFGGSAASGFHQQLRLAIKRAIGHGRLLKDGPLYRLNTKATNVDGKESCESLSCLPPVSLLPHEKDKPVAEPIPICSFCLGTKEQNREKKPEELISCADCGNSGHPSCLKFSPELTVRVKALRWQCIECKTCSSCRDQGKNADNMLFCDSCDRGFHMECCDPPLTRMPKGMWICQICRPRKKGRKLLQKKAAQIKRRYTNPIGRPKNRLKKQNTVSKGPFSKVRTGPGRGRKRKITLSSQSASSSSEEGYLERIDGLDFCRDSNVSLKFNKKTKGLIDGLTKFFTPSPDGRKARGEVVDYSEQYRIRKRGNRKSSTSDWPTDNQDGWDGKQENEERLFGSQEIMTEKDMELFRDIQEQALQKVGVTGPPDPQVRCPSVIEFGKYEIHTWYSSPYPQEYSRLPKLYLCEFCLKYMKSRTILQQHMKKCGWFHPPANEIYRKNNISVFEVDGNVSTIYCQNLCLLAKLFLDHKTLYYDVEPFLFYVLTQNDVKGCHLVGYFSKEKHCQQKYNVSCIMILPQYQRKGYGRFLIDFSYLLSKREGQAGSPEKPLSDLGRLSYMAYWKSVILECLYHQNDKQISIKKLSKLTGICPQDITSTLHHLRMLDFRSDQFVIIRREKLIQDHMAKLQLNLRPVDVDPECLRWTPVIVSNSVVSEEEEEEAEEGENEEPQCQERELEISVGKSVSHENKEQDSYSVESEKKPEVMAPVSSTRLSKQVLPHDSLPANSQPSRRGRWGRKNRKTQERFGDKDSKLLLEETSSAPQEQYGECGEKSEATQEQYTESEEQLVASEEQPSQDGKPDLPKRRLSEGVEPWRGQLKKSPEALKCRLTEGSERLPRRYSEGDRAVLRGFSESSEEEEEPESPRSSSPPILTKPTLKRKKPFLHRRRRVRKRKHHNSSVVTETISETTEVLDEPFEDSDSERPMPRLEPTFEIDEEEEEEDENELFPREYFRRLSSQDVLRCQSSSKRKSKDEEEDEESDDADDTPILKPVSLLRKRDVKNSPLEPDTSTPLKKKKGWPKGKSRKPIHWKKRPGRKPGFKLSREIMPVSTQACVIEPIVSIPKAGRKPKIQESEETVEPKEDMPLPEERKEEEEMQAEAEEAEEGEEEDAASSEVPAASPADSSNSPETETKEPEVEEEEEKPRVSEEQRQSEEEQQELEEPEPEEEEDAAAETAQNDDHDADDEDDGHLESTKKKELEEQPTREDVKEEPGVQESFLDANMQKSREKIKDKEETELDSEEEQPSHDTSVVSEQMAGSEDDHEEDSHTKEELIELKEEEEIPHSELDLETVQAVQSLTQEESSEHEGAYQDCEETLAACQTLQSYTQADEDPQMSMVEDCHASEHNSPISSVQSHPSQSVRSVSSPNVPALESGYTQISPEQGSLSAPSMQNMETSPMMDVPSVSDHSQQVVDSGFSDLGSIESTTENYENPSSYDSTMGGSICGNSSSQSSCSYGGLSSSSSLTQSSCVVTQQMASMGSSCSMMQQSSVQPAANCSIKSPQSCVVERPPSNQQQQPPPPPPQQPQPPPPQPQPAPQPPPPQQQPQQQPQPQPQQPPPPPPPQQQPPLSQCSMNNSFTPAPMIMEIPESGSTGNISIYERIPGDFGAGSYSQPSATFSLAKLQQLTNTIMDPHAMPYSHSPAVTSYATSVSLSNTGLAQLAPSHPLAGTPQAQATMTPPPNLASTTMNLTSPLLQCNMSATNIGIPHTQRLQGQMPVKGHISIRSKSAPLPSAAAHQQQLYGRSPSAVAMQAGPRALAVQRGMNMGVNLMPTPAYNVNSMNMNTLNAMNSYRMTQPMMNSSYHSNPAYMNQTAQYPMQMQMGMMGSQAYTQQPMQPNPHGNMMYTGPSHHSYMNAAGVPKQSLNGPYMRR
KAT8 Full length enzyme, sequence (Q9H7Z6 whole entry): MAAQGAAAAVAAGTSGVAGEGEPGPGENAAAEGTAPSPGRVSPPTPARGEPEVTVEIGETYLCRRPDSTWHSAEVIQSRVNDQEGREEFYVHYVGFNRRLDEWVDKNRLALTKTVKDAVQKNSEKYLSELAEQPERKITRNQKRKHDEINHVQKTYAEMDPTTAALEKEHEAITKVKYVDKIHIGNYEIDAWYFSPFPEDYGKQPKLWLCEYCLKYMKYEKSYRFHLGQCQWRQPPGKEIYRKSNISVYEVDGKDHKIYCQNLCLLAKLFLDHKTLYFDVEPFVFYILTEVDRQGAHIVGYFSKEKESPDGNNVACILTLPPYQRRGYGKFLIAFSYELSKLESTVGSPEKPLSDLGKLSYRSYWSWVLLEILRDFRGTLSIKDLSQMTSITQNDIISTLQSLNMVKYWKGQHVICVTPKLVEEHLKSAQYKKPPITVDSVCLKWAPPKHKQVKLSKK
KAT5 Full length enzyme, sequence (Q92993 whole entry): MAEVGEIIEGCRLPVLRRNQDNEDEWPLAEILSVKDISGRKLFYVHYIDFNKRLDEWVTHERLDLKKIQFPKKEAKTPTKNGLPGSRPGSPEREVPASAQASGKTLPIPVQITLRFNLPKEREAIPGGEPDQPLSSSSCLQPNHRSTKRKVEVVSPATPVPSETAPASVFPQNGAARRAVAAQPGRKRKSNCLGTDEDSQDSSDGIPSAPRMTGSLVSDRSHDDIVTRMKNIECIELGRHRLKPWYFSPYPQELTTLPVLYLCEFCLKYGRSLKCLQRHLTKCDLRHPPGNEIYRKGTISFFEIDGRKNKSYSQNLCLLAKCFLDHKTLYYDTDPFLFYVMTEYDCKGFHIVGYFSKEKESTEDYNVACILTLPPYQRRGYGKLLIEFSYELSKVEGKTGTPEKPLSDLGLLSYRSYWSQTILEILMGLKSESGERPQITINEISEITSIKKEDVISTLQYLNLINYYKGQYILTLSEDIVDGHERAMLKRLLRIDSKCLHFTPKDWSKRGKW

`COc1cc2c(NS(=O)(=O)c3c(OC)cccc3OCC(F)F)noc2cc1Nc1cc[nH]n1` [Example 31, 2-(2,2-difluoroethoxy)-6-methoxy-N-{5-methoxy-6-[(1H-pyrazol-3-yl)amino]-1,2-benzoxazol-3-yl}benzene-1-sulfonamide]: the Ki on KAT6A Full length enzyme worked out at 0.8 nM; in test [1] it was 79.9 nM; in test [2] it was 104 nM; in test [3], 325 nM; on KAT8 Full length enzyme, 781 nM; at KAT5 Full length enzyme, 977 nM.

Regarding `COc1cc2c(NS(=O)(=O)c3ccc(C)cc3OCC(F)F)noc2cc1Nc1cc(C(C)C)[nH]n1` [Example 62, 2-(2,2-difluoroethoxy)-N-(5-methoxy-6-{[5-(propan-2-yl)-1H-pyrazol-3-yl]amino}-1,2-benzoxazol-3-yl)-4-methylbenzene-1-sulfonamide], the Ki on KAT6A Full length enzyme amounted to 4.9 nM; in test [1], 38.1 nM; in test [2] it was 35.3 nM; in test [3] it was 191 nM; on KAT8 Full length enzyme, 5340 nM; on KAT5 Full length enzyme, 750 nM.

With `COc1cc2c(NS(=O)(=O)c3c(OC)cccc3OC)noc2cc1Nc1cc(Cc2ccccc2)n[nH]1` [Example 109, N-{6-[(3-benzyl-1H-pyrazol-5-yl)amino]-5-methoxy-1,2-benzoxazol-3-yl}-2,6-dimethoxybenzene-1-sulfonamide], the Ki at KAT6A Full length enzyme worked out at 0.8 nM; in test [1], 5 nM; in test [3], 18.5 nM; at KAT8 Full length enzyme, 2930 nM; at KAT5 Full length enzyme it was 326 nM.

Take `COc1cc2c(NS(=O)(=O)c3c(OC)cc(-c4ccn(C)n4)cc3OC)noc2cc1Nc1cc(C2CC2)n[nH]1` [Example 122, N-{6-[(3-cyclopropyl-1H-pyrazol-5-yl)amino]-5-methoxy-1,2-benzoxazol-3-yl}-2,6-dimethoxy-4-(1-methyl-1H-pyrazol-3-yl)benzene-1-sulfonamide]: the Ki on KAT6A Full length enzyme came out at 0.3 nM; in test [1], 1.2 nM; in test [3] it was 3 nM; at KAT8 Full length enzyme, 395 nM; at KAT5 Full length enzyme it was 45.3 nM.

For the compound `COC(=O)c1cc(Nc2cc3onc(NS(=O)(=O)c4c(OC)cccc4OC)c3cc2OC)[nH]n1` [Example 55, methyl 5-({3-[(2,6-dimethoxybenzene-1-sulfonyl)amino]-5-methoxy-1,2-benzoxazol-6-yl}amino)-1H-pyrazole-3-carboxylate], the Ki on KAT6A Full length enzyme came to 2.4 nM; in test [1] it was 199 nM; in test [2], 147 nM; in test [3], 663 nM.

On to `COc1cc2c(NS(=O)(=O)c3c(OC)cc(CN4CC[C@@H](F)C4)cc3OC)noc2cc1Nc1cc(C2CC2)n[nH]1` [Example 201, N-{6-[(3-cyclopropyl-1H-pyrazol-5-yl)amino]-5-methoxy-1,2-benzoxazol-3-yl}-4-{[(3R)-3-fluoropyrrolidin-1-yl]methyl}-2,6-dimethoxybenzene-1-sulfonamide], for which the Ki on KAT6A Full length enzyme amounted to 0.6 nM; in test [1], 3.4 nM; in test [3], 4.1 nM; at KAT8 Full length enzyme it was 2190 nM; on KAT5 Full length enzyme it was 192 nM.

As for `COc1cc2c(NS(=O)(=O)c3c(OC)cccc3OC(C)C)noc2cc1Nc1cc[nH]n1` [Example 32, 2-methoxy-N-{5-methoxy-6-[(1H-pyrazol-3-yl)amino]-1,2-benzoxazol-3-yl}-6-[(propan-2-yl)oxy]benzene-1-sulfonamide], the Ki was 89.7 nM in test [1]; 79.5 nM in test [2]; 361 nM in test [3]; above 16300 nM on KAT8 Full length enzyme; 2740 nM on KAT5 Full length enzyme.

As for `COc1cc2c(NS(=O)(=O)c3c(OC)cc(C4CCCN4C)cc3OC)noc2cc1Nc1cc(C2CC2)n[nH]1` (racemic) [Example 154, N-{6-[(3-cyclopropyl-1H-pyrazol-5-yl)amino]-5-methoxy-1,2-benzoxazol-3-yl}-2,6-dimethoxy-4-(1-methylpyrrolidin-2-yl)benzene-1-sulfonamide], the Ki on KAT6A Full length enzyme is 2 nM; in test [1], 7.8 nM; in test [3], 15.3 nM; on KAT8 Full length enzyme, 2140 nM; on KAT5 Full length enzyme, 88.3 nM.

Turning to `COc1cc2c(NS(=O)(=O)c3c(OC)cc(-c4nccc(CN(C)C)n4)cc3OC)noc2cc1Nc1cc(C2CC2)n[nH]1` [Example 222, N-{6-[(3-cyclopropyl-1 H-pyrazol-5-yl)amino]-5-methoxy-1,2-benzoxazol-3-yl}-4-{4-[(dimethylamino)methyl]pyrimidin-2-yl}-2,6-dimethoxybenzene-1-sulfonamide], the inhibition constant Ki on KAT6A Full length enzyme was 0.5 nM; in test [1], 4 nM; in test [3], 4.5 nM; at KAT8 Full length enzyme it was 958 nM; on KAT5 Full length enzyme, 27.9 nM.

In the case of `COc1cc2c(NS(=O)(=O)c3c(OC)cccc3OC)noc2cc1Nc1cc(CC(C)C)n[nH]1` [Example 114, 2,6-dimethoxy-N-(5-methoxy-6-{[3-(2-methylpropyl)-1H-pyrazol-5-yl]amino}-1,2-benzoxazol-3-yl)benzene-1-sulfonamide], the Ki stood at 1.3 nM on KAT6A Full length enzyme; 2.1 nM in test [1]; 22 nM in test [3]; 3360 nM on KAT8 Full length enzyme; 312 nM on KAT5 Full length enzyme.

With `COc1cc2c(NS(=O)(=O)c3c(OC)cccc3OC3CC3)noc2cc1Nc1cc[nH]n1` [Example 34, 2-(cyclopropyloxy)-6-methoxy-N-{5-methoxy-6-[(1H-pyrazol-3-yl)amino]-1,2-benzoxazol-3-yl}benzene-1-sulfonamide], the Ki at KAT6A Full length enzyme is 0.4 nM; in test [1], 11.2 nM; in test [3] it was 51.8 nM; on KAT8 Full length enzyme, 1240 nM; on KAT5 Full length enzyme, 365 nM.

Consider `COc1cc2c(NS(=O)(=O)c3c(OC)cc(CN4CC(F)(F)C4)cc3OC)noc2cc1Nc1cc(C2CC2)n[nH]1` [Example 203, N-{6-[(3-cyclopropyl-1H-pyrazol-5-yl)amino]-5-methoxy-1,2-benzoxazol-3-yl}-4-[(3,3-difluoroazetidin-1-yl)methyl]-2,6-dimethoxybenzene-1-sulfonamide], for which the Ki at KAT6A Full length enzyme was 0.4 nM; in test [1] it was 3 nM; in test [3] it was 4.3 nM; on KAT8 Full length enzyme, 1220 nM; at KAT5 Full length enzyme, 21.7 nM.

Regarding `CCc1cc(Nc2cc3onc(NS(=O)(=O)c4c(OC)cccc4OC)c3c(OC)c2F)[nH]n1` [Example 72, N-{6-[(3-ethyl-1H-pyrazol-5-yl)amino]-5-fluoro-4-methoxy-1,2-benzoxazol-3-yl}-2,6-dimethoxybenzene-1-sulfonamide], the Ki was 4.6 nM at KAT6A Full length enzyme; 1.1 nM in test [1]; 21.5 nM in test [3]; above 6970 nM at KAT8 Full length enzyme; 1010 nM on KAT5 Full length enzyme.

For the compound `COc1cccc(OC)c1S(=O)(=O)Nc1noc2cc(Nc3cc(C4CC4)n[nH]3)c(F)c(OC)c12` [Example 71, N-{6-[(3-cyclopropyl-1H-pyrazol-5-yl)amino]-5-fluoro-4-methoxy-1,2-benzoxazol-3-yl}-2,6-dimethoxybenzene-1-sulfonamide], the Ki was 2.6 nM at KAT6A Full length enzyme; 2.2 nM in test [1]; 20.9 nM in test [3]; 4050 nM on KAT8 Full length enzyme; 591 nM at KAT5 Full length enzyme.

The values above are taken from patent US20250122183A1 (Pfizer Inc., priority 2023, published 2025).
